# Measurements published in PMC11997307, “Rat Sarcoma (RAS)-Protein-Targeting Synthetic Cell-Penetrating Peptide as an Anticancer Biomaterial” (Biomaterials Research, 2025).
# Tests used:
# [1] = test system: phospho-c-RAF and phospho-ERK1/2 in MDA-MB-231 cells; assay: Western blot of RAS-MAPK pathway, MDA-MB-231; type: cell-based, human; conditions: MDA-MB-231, 10-250 μM RBP 6 h then 50 ng/ml EGF 10 min
# Description: Protein expression was confirmed via Western blot analysis. Briefly, 9 × 10^5 cells were cultured in 100-mm-diameter dishes. When they reached 90% confluence, the cells were starved for 18 h in serum-free medium. […] At the end of the culture period, the cells were lysed for 20 min in cold lysis buffer on ice. Protein concentration was measured using bicinchoninic acid protein assays (Thermo Fisher Scientific, MA, USA). Equal aliquots of protein (40 μg) were boiled for 7 min in 5× sample buffer and separated by 10% SDS–PAGE. Proteins were transferred onto nitrocellulose membranes, followed by washing with Tris-buffered saline (TBS) containing 0.1% Tween 20 (TBST). The membranes were then blocked for 60 min at room temperature with 5% skim milk in TBST. Following the washing procedure, the membranes were incubated with primary antibodies (RAS, phospho-ERK1/2, ERK1/2, phospho-RAF proto-oncogene serine/threonine-protein kinase [phospho-c-RAF; S338], c-RAF [Cell Signaling Technology, Beverly, MA, USA], and GAPDH [Santa Cruz Biotechnology, Inc., Santa Cruz, CA, USA]) diluted in TBST containing 5% skim milk at 4 °C for 18 h. […] The membranes were subsequently washed 3 more times, and protein bands were detected using chemiluminescence reagents (West Pico PLUS, Thermo Fisher Scientific, USA).
# [2] = test system: MDA-MB-231 cell-derived tumors; type: in vivo
# Description: Fertilized white leghorn eggs, sourced from the Société Française de Production Avicole (St. Brieuc, France), were incubated for 9 d at 37.5 °C with 50% relative humidity. On embryonic day 9 (E9), a small hole was drilled into the air sac to lower the chorioallantoic membrane (CAM), and a 1-cm^2 window was created in the eggshell above the CAM. The MDA-MB-231 cell line was cultivated in DMEM supplemented with 10% FBS (and 1% penicillin/streptomycin). Cells (at 90% confluency, passages 30 to 32) were detached from culture plates with trypsin/EDTA, rinsed with complete medium, and suspended in graft medium. An inoculum of 1 × 10^6 cells was added onto the CAM of each egg. The eggs were randomly assigned to groups. On day 10 (E10), tumors were detectable. They were then treated every 2 d for 9 d (E11, E13, E15, and E17); specifically, 100 μl of the vehicle or 100 μl of the peptide (10 mg/kg) was added dropwise to the tumor. Angiogenesis was estimated by calculating the number of vessels on the CAM that irrigated tumors. Because tumors generated from MDA-MB-231 cells are hemorrhagic, images were obtained at E16 (2 d before collection to ensure that all vessels in the CAM were visible). On day 18 (E18), the upper portion of the CAM containing the tumor was removed, washed in PBS, and then directly transferred to paraformaldehyde (for 48 h for fixation). The tumors were then carefully removed from normal CAM tissue and weighed. The extent of treatment toxicity was evaluated according to the number of dead embryos after 9 d of treatment and observation of visible macroscopic abnormalities at the end point.
# In parallel, a 1-cm^2 portion of the lower CAM was collected to evaluate the number of metastatic cells. Genomic DNA was extracted from the CAM and analyzed for human Alu sequences via quantitative polymerase chain reaction (qPCR) with specific primers. Calculation of the Cq for each sample, the mean Cq, and the number of metastases for each group were performed with the Bio-Rad CFX Maestro software (Bio-Rad, Hercules, CA, USA). According to the real-time PCR data markup language data standard (http://www.rdml.org), Cq is defined as the cycle at which the amplification curve […] (fractional PCR cycles). The Cq value is obtained in the exponential phase, where the qPCR curve is linear. This is the basic result of qPCR: lower Cq values indicate higher initial copy numbers of the target gene. When the PCR efficiency is 100%, a difference of 1 cycle between 2 reactions means that there are 2 times more copies (genes) in the reaction with the lower Cq value than in the reaction with the higher Cq value. One-way analysis of variance (ANOVA) with post hoc tests was performed on the data.
# On day 18 (E18), 5 tumor samples per group (different from the tumor samples used for tumor weight determination) were collected to evaluate the infiltration of immune cells. Each tumor sample was cut to a small size (<0.5 cm^3) and kept in 5 volumes of RNAlater solution at 4 °C. The extracted RNA was analyzed via reverse transcription qPCR with specific primers for chicken CD3 and CD4 sequences. The Bio-Rad CFX Maestro software was used to calculate the Cq values for each sample, determine the mean Cq, and quantify the relative expression of immune cell markers in each group.
# Three tumors per group were harvested and fixed in 4% formaldehyde, washed, and then stored in 70% ethanol until needed for experiments. The tumors were cut to a standard size and placed in an embedding cassette. The paraffin blocks were sectioned at a thickness of approximately 3 to 5 μm. The cells were placed on a glass slide, stained with hematoxylin and eosin (H&E) and Ki-67, and covered in an automated machine. Pictures were taken via a microscope (Olympus BX60, serial no. 7D04032, Shinjuku, Japan) at a magnification of ×4 and a microscope camera (Olympus DP73, serial no. OH05504, Shinjuku, Japan). […]
# MCF-7 cells = assay: Cell viability, CCK-8 assay, MCF-7; type: cell-based, human; conditions: MCF-7 (KRAS wild-type), CCK-8, 0-1,000 μM RBP, 24, 48 or 72 h, triplicate
# Description: The viability of the cells was determined via Cell Counting Kit-8 (CCK-8; Dojindo Laboratories, Kumamoto, Japan) assay. The cells were plated in 96-well culture plates at a density of 5 × 10^3 cells per well and incubated for 24 h at 37 °C in a humidified incubator with 5% CO2. […] After incubation, the medium was replaced with fresh medium containing 10% (v/v) CCK-8 reagent, and the cells were incubated for 2 h. Absorbance was measured at 450 nm using a microplate reader. All experiments were performed in triplicate.
# MDA-MB-231 cells = assay: Tumor colony forming assay; type: cell-based, human; conditions: MDA-MB-231, 0, 1, 10, 50, 100 or 200 μM RBP, 5 d, crystal violet
# Description: MDA-MB-231 cells were plated in 24-well culture plates at a density of 1 × 10^3 cells per well and incubated for 24 h at 37 °C in a humidified incubator with 5% CO2. […] The cells were fixed with Carnoy’s fixative (75% methanol and 25% acetic acid) for 5 min at room temperature and stained with 0.4% crystal violet for 5 min. After staining, the cells were rinsed with distilled water, and images were taken.
# [3] = chicken egg CAM tumors, 10 mg/kg, E18, 5 tumors per group, normalized to GAPDH
smiles,measurement,setting,value
C[C@@H](O)[C@H](NC(=O)[C@H](CO)NC(=O)[C@H](CS)NC(=O)[C@H](CCCCN)NC(=O)CN)C(=O)N[C@@H](CCCNC(=N)N)C(=O)NCC(=O)N[C@@H](CCCNC(=N)N)C(=O)N[C@@H](CCCCN)C(=O)N[C@@H](CS)C(=O)N[C@@H](CS)C(=O)N[C@@H](CCCNC(=N)N)C(=O)N[C@@H](CCCNC(=N)N)C(=O)N[C@@H](CCCCN)C(=O)N[C@@H](CCCCN)C(N)=O [RBP],activation of RAF (phospho-c-RAF),[1],effectively inhibited
same,phosphorylation of ERK1/2,"[1]; p-ERK/ERK, n = 3",effectively inhibited
same,Ki-67 expression in tumor sections (IHC),"[2]; chicken egg CAM tumors, 10 mg/kg",reduced Ki-67 expression
same,"infiltration of CD3-positive immune cells in tumors (chicken CD3 mRNA, RT-qPCR)",[2]; [3],increased infiltration
same,"infiltration of CD4-positive immune cells in tumors (chicken CD4 mRNA, RT-qPCR)",[2]; [3],increased infiltration
same,formation of microvessels,"[2]; chicken egg CAM, 10 mg/kg, E16",significantly suppressed
same,metastasis of MDA-MB-231 cells to lower CAM (human Alu qPCR),"[2]; chicken egg CAM, 10 mg/kg, E18, P < 0.01 vs Neg Ctrl",significantly inhibited
same,number of vessels reaching and feeding the tumors,"[2]; chicken egg CAM, 10 mg/kg, images at E16, P < 0.05 vs Neg Ctrl",significantly reduced
same,average tumor weight,"[2]; chicken egg CAM, MDA-MB-231, 10 mg/kg at E11, E13, E15, E17, collected E18, mean ± SD, P < 0.01 vs Neg Ctrl (54.40 ± 12.22 mg)",22.10 ± 5.86 mg
same,embryo mortality compared to negative control,"[2]; in vivo, 10 mg/kg",no statistically significant difference
same,decrease in the percentage of viable cells,MCF-7 cells,not significant
same,colony area,MDA-MB-231 cells,dose-dependent decrease in colony area
